Read-outs that look alike come from different tables or passages of the source.
Assays:
PI3Kα = PI3Kα (Homo sapiens (Human), UniProt P42336); settings: read-out: PI3Kα AlphaScreen ® Ki
[1] = system: phosphorylation of Akt at Serine 473 in U87 MG cells; assay: cells; settings: Homo sapiens, U-87 MG, 2 h
[2] = read-out: U87Cell IC50, pAkt (Ser 473), U87 MG cells, two hours with compound

PI3Kα, sequence (P42336 whole entry): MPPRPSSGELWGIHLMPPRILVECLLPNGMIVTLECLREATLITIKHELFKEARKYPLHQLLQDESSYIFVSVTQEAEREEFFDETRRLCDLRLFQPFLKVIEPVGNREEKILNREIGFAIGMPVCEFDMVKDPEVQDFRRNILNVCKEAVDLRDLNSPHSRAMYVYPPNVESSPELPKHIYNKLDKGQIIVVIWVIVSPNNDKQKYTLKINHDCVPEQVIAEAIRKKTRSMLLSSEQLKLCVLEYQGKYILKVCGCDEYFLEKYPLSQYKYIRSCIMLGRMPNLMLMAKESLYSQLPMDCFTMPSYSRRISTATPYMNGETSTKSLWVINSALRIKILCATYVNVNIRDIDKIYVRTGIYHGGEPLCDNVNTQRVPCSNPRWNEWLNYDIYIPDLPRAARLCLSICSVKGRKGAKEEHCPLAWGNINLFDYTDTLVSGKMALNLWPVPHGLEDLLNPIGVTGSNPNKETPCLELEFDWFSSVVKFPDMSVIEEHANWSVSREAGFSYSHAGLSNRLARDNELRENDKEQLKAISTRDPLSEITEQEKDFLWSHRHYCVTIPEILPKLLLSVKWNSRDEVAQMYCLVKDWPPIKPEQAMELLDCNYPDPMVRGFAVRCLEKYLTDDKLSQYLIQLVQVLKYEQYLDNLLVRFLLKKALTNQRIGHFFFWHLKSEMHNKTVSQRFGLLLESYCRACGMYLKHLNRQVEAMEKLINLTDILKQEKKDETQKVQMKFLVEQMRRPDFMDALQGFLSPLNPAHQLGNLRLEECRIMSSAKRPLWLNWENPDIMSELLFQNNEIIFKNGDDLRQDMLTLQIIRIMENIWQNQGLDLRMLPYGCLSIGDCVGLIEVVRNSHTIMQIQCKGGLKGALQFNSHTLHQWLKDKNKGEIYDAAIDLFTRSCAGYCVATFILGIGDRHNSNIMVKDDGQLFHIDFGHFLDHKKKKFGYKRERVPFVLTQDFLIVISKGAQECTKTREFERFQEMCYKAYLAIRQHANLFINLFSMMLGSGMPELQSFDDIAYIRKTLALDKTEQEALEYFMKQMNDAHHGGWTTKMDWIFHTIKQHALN
PI3Kα, sequence (P27986 whole entry partner): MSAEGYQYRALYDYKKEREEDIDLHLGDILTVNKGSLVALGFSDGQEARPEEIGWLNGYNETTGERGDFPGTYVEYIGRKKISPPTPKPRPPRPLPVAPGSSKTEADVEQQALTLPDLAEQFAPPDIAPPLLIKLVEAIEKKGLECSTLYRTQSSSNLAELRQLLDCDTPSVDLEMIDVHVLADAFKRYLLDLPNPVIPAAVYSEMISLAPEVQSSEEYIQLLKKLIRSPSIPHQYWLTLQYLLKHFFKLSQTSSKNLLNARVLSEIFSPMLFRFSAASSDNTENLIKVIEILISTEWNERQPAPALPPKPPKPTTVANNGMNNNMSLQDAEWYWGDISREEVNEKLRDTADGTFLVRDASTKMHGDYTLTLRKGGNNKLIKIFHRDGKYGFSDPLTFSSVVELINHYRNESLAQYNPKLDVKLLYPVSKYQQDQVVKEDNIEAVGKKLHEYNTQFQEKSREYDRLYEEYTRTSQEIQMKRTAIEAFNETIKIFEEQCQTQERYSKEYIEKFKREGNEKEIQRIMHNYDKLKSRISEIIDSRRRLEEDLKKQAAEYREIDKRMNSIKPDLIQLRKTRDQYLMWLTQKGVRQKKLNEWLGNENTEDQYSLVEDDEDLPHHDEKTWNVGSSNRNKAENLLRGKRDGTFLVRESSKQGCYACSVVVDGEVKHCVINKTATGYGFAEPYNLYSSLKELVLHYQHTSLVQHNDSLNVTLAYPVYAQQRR

| SMILES | Ki (PI3Kα) | IC50 [1, 2] | IC50 ([1]; read-out: U87Cell IC50) |
| --- | --- | --- | --- |
| CC(=O)Nc1ccc(Nc2ncc(CN3CCN(S(C)(=O)=O)CC3)cc2-c2nc(C)nc(N)n2)cn1 [Example 196, N-(5-(3-(4-Amino-6-Methyl-1,3,5-Triazin-2-yl)-5-((4-(Methylsulfonyl)Piperazin-1-yl)Methyl)Pyridin-2-Ylamino)Pyridin-2-yl)Acetamide] | 52 nM | 322 nM | – |
| COc1ncc(Nc2nc(C)ccc2-c2nc(C)nc(N)n2)cc1F [Example 197, 4-(2-(5-Fluoro-6-Methoxypyridin-3-Ylamino)-6-Methylpyridin-3-yl)-6-Methyl-1,3,5-Triazin-2-Amine] | 33 nM | 211 nM | – |
| COc1ncc(Nc2nc(CN3CCOCC3)ccc2-c2nc(C)nc(N)n2)cc1F [Example 198, 4-(2-(5-Fluoro-6-Methoxypyridin-3-Ylamino)-6-(Morpholinomethyl)Pyridin-3-yl)-6-Methyl-1,3,5-Triazin-2-Amine] | 276 nM | 219 nM | – |
| COc1ncc(Nc2nc(COCC(F)(F)F)ccc2-c2nc(C)nc(N)n2)cc1F [Example 199, 4-(2-(5-Fluoro-6-Methoxypyridin-3-Ylamino)-6-((2,2,2-Trifluoroethoxy)Methyl)Pyridin-3-yl)-6-Methyl-1,3,5-Triazin-2-Amine] | 68 nM | 227 nM | – |
| Cc1ccc(-c2nc(C)nc(N)n2)c(Nc2cncc(F)c2)n1 [Example 200, 4-(2-(5-Fluoropyridin-3-Ylamino)-6-Methylpyridin-3-yl)-6-Methyl-1,3,5-Triazin-2-Amine] | 180 nM | > 10000 nM | – |
| COc1ccc(Nc2ncc(CN3CCSCC3)cc2-c2nc(C)nc(N)n2)cn1 [Example 201, 4-(2-(6-Methoxypyridin-3-Ylamino)-5-(Thiomorpholinomethyl)Pyridin-3-yl)-6-Methyl-1,3,5-Triazin-2-Amine] | 94 nM | 66 nM | – |
| COc1ccc(Nc2ncc(CN3CC[S+]([O-])CC3)cc2-c2nc(C)nc(N)n2)cn1 [Example 202, 4-(2-(6-Methoxypyridin-3-Ylamino)-5-(1-Sulfoxidemorpholinomethyl)Pyridin-3-yl)-6-Methyl-1,3,5-Triazin-2-Amine] | 147 nM | 124 nM | – |
| Cc1nc(N)nc(-c2cc(CN3CCN(S(C)(=O)=O)CC3)cnc2Nc2cnc3c(c2)ncn3C)n1 [Example 203, N-(3-(4-Amino-6-Methyl-1,3,5-Triazin-2-yl)-5-((4-(Methylsulfonyl)Piperazin-1-yl)Methyl)Pyridin-2-yl)-3-Methyl-3H-Imidazo[4,5-B]Pyridin-6-Amine] | 16 nM | 562 nM | – |
| COc1ccc(Nc2ncc(N3CC[C@H](CO)C3)cc2-c2nc(C)nc3[nH]cnc23)cn1 [Example 204, ((3S)-1-(6-((6-Methoxy-3-Pyridinyl)Amino)-5-(2-Methyl-9H-Purin-6-yl)-3-Pyridinyl)-3-Pyrrolidinyl)Methanol] | 40 nM | 434 nM | – |
| COc1ccc(Nc2ncc(N3CC[C@H](O)C3)cc2-c2nc(C)nc3[nH]cnc23)cn1 [Example 205, (3S)-1-(6-((6-Methoxy-3-Pyridinyl)Amino)-5-(2-Methyl-9H-Purin-6-yl)-3-Pyridinyl)-3-Pyrrolidinol] | 47 nM | 384 nM | – |
| COc1ccc(Nc2ncc(N3CC[C@@H](O)C3)cc2-c2nc(C)nc3[nH]cnc23)cn1 [Example 206, (3R)-1-(6-((6-Methoxy-3-Pyridinyl)Amino)-5-(2-Methyl-9H-Purin-6-yl)-3-Pyridinyl)-3-Pyrrolidinol] | 68 nM | 387 nM | – |
| COc1ccc(Nc2ncc(CN3CCOC[C@@H]3C)cc2-c2nc(C)nc(N)n2)cn1 [Example 219, (S)-4-(2-(6-Methoxypyridin-3-Ylamino)-5-((3-Methylmorpholino)Methyl)Pyridin-3-yl)-6-Methyl-1,3,5-Triazin-2-Amine] | 93 nM | 295 nM | – |
| COc1ccc(Nc2ncc(CN3CC(S(C)(=O)=O)C3)cc2-c2nc(C)nc(N)n2)cn1 [Example 223, 4-(2-(6-Methoxypyridin-3-Ylamino)-5-((3-(Methylsulfonyl)Azetidin-1-yl)Methyl)Pyridin-3-yl)-6-Methyl-1,3,5-Triazin-2-Amine] | 6 nM | 28 nM | – |
| COc1ccc(Nc2ncc(CNCCO)cc2-c2nc(C)nc(N)n2)cn1 [Example 225, 2-((5-(4-Amino-6-Methyl-1,3,5-Triazin-2-yl)-6-(6-Methoxypyridin-3-Ylamino)Pyridin-3-yl)Methylamino)Ethanol] | 135 nM | 275 nM | – |
| COc1ccc(Nc2ncc(CN[C@H](C)CO)cc2-c2nc(C)nc(N)n2)cn1 [Example 226, (R)-2-((5-(4-Amino-6-Methyl-1,3,5-Triazin-2-yl)-6-(6-Methoxypyridin-3-Ylamino)Pyridin-3-yl)Methylamino)Propan-1-ol] | 354 nM | 573 nM | – |
| COc1ccc(Nc2ncc(CN3CC(O)C3)cc2-c2nc(C)nc(N)n2)cn1 [Example 229, 1-((5-(4-Amino-6-Methyl-1,3,5-Triazin-2-yl)-6-(6-Methoxypyridin-3-Ylamino)Pyridin-3-yl)Methyl)Azetidin-3-ol] | 59 nM | 276 nM | – |

| SMILES | Ki (PI3Kα) | IC50 [1, 2] | IC50 ([1]; read-out: U87Cell IC50) |
| --- | --- | --- | --- |
| COc1ccc(Nc2ncc(CN3CC4(C3)NC(=O)NC4=O)cc2-c2nc(C)nc(N)n2)cn1 [Example 230, 2-((5-(4-Amino-6-Methyl-1,3,5-Triazin-2-yl)-6-(6-Methoxypyridin-3-Ylamino)Pyridin-3-yl)Methyl)-2,5,7-Triazaspiro[3.4]Octane-6,8-Dione] | 68 nM | 2470 nM | – |
| COc1ccc(Nc2ncc(CN3CC(N)C3)cc2-c2nc(C)nc(N)n2)cn1 [Example 231, 4-(5-((3-Aminoazetidin-1-yl)Methyl)-2-(6-Methoxypyridin-3-Ylamino)Pyridin-3-yl)-6-Methyl-1,3,5-Triazin-2-Amine] | 446 nM | 404 nM | – |
| COc1ccc(Nc2ncc(CN3CC(NS(C)(=O)=O)C3)cc2-c2nc(C)nc(N)n2)cn1 [Example 232, N-(1-((5-(4-Amino-6-Methyl-1,3,5-Triazin-2-yl)-6-(6-Methoxypyridin-3-Ylamino)Pyridin-3-yl)Methyl)Azetidin-3-yl)Methanesulfonamide] | 39 nM | 78 nM | – |
| COc1ccc(Nc2ncc(CN3CCn4ncnc4C3)cc2-c2nc(C)nc(N)n2)cn1 [Example 233, 4-(5-((5,6-Dihydro-[1,2,4]Triazolo[1,5-A]Pyrazin-7(8H)-yl)Methyl)-2-(6-Methoxypyridin-3-Ylamino)Pyridin-3-yl)-6-Methyl-1,3,5-Triazin-2-Amine] | 41 nM | 58 nM | – |
| COc1ccc(Nc2ncc(C(O)c3cc(Br)ccc3S(=O)(=O)N(C)C)cc2-c2nc(C)nc(N)n2)cn1 (centres unmarked) [Example 235, 2-((5-(4-Amino-6-Methyl-1,3,5-Triazin-2-yl)-6-(6-Methoxypyridin-3-Ylamino)Pyridin-3-yl)(Hydroxy)Methyl)-4-Bromo-N,N-Dimethylbenzenesulfonamide] | 23 nM | > 10000 nM | – |
| COc1ccc(Nc2ncc(C(O)c3ccc(S(=O)(=O)N(C)C)cc3)cc2-c2nc(C)nc(N)n2)cn1 (centres unmarked) [Example 236, 4-((5-(4-Amino-6-Methyl-1,3,5-Triazin-2-yl)-6-(6-Methoxypyridin-3-Ylamino)Pyridin-3-yl)(Hydroxy)Methyl)-N,N-Dimethylbenzenesulfonamide] | 4 nM | > 10000 nM | – |
| COc1ccc(Nc2ncc(C(N)c3ccc(S(=O)(=O)N(C)C)cc3)cc2-c2nc(C)nc(N)n2)cn1 (centres unmarked) [Example 237, 4-(Amino(5-(4-Amino-6-Methyl-1,3,5-Triazin-2-yl)-6-(6-Methoxypyridin-3-Ylamino)Pyridin-3-yl)Methyl)-N,N-Dimethylbenzenesulfonamide] | 18 nM | 46 nM | – |
| COc1ccc(Nc2nc3ccccc3cc2-c2nc(C)nc(N)n2)cn1 [Example 238, 3-(4-Amino-6-Methyl-1,3,5-Triazin-2-yl)-N-(6-Methoxypyridin-3-yl)Quinolin-2-Amine] | 45 nM | 245 nM | – |
| Cc1nc(N)nc(-c2cc(CN3CCN(S(C)(=O)=O)CC3)cnc2Nc2ccc3scnc3c2)n1 [Example 240, N-(3-(4-Amino-6-Methyl-1,3,5-Triazin-2-yl)-5-((4-(Methylsulfonyl)Piperazin-1-yl)Methyl)Pyridin-2-yl)Benzo[D]Thiazol-5-Amine] | 8 nM | 43 nM | – |
| Cc1nc(N)nc(-c2cc(CN3CCN(S(C)(=O)=O)CC3)cnc2Nc2ccc3ncsc3c2)n1 [Example 241, N-(3-(4-Amino-6-Methyl-1,3,5-Triazin-2-yl)-5-((4-(Methylsulfonyl)Piperazin-1-yl)Methyl)Pyridin-2-yl)Benzo[D]Thiazol-6-Amine] | 43 nM | 87 nM | – |
| Cc1nc(N)nc(-c2cc(CN3CCN(S(C)(=O)=O)CC3)cnc2Nc2cn[nH]c2)n1 [Example 243, 4-(2-(1H-Pyrazol-4-Ylamino)-5-((4-(Methylsulfonyl)Piperazin-1-yl)Methyl)Pyridin-3-yl)-6-Methyl-1,3,5-Triazin-2-Amine] | 163 nM | 1520 nM | – |
| Cc1nc(N)nc(-c2cc(CN3CCN(S(C)(=O)=O)CC3)cnc2Nc2cc[nH]n2)n1 [Example 244, 4-(2-(1H-Pyrazol-3-Ylamino)-5-((4-(Methylsulfonyl)Piperazin-1-yl)Methyl)Pyridin-3-yl)-6-Methyl-1,3,5-Triazin-2-Amine] | 1460 nM | 1490 nM | – |
| Cc1nc(N)nc(-c2cccnc2Nc2ccc(F)c(F)c2)n1 [Example 248] | 442 nM | 2300 nM | – |
| COc1ccc(Nc2ncc(C3=CCNCC3)cc2-c2nc(C)nc(N)n2)cn1 [Example 249, 4-(2-(6-Methoxypyridin-3-Ylamino)-5-(1,2,3,6-Tetrahydropyridin-4-yl)Pyridin-3-yl)-6-Methyl-1,3,5-Triazin-2-Amine] | 21 nM | – | 88 nM |
| COc1ccc(Nc2ncc(-c3cn[nH]c3)cc2-c2nc(C)nc(N)n2)cn1 [Example 250, 4-(2-(6-Methoxypyridin-3-Ylamino)-5-(1H-Pyrazol-4-yl)Pyridin-3-yl)-6-Methyl-1,3,5-Triazin-2-Amine] | 11 nM | 46 nM | – |

— patent publication US8772480B2, “Inhibitors of PI3 kinase and/or mTOR” (priority 2009, dated 2014)
